From article PMC12062775, “Shifting the substrate scope of dimeric pyranose oxidase from monosaccharide to glycoside preference through oligomeric state modification” (The Febs Journal, 2025)

How the values were obtained:
KaPOx_xalh = system: T1, KaPOx_xalh; test: Amplex Red / horseradish peroxidase coupled oxidase assay, steady state; assay type: biochemical, Kitasatospora aureofaciens; conditions: air O2 ~250 μM, 50 mM Tris/HCl pH 7.5, 30 °C; read-out: [drawing 2] Phlorizin / K m/mM
T1 construct: gene KaPOx; C-terminal His6; pET-21a(+), E. coli T7 Express
Excerpt: Amplex Red / horseradish peroxidase coupled oxidase assay, steady state on KaPOx_xalh

KaPOx_xal = system: T2, KaPOx_xal; test: as above; assay type: biochemical, Kitasatospora aureofaciens; conditions: air O2 ~250 μM, 50 mM Tris/HCl pH 7.5, 30 °C; read-out: [drawing 2] Phlorizin / K m/mM
T2 construct: gene KaPOx; KaPOx with arm domain and oligomerization loop replaced by ScPOx insertion-1 domain and flexible loop; C-terminal His6; pET-21a(+), E. coli T7 Express
Excerpt: Amplex Red / horseradish peroxidase coupled oxidase assay, steady state on KaPOx_xal

Km (KaPOx_xalh): 0.019 ± 0.003 mM
Km (KaPOx_xal): 0.015 ± 0.002 mM
SMILES: O=C(CCc1ccc(O)cc1)c1c(O)cc(O)cc1O[C@@H]1O[C@H](CO)[C@@H](O)[C@H](O)[C@H]1O [Phlorizin]
